Test results published in patent US5925667A, “Pyrrolidine derivative, anti-ulcer drug, and antibacterial drug” (Shiseido Co., Ltd., priority 1997, dated 1999).

Legend:
stress ulcer = experiment: WIS: Restraint and Water Immersion Stress-Induced Ulcer Inhibition Test; type: in vivo, male Crj:SD or Slc:SD rats; settings: rat; for inhibition in vivo at 100 mg/kg: 100 mg/kg oral, 7 h water immersion stress, read-out: ulcer formation inhibitory rate (WIS)
Protocol: WIS: Restraint and Water Immersion Stress-Induced Ulcer Inhibition Test
The degree of inhibition of the stress ulcer formation is tested.
Male Crj:SD or Slc:SD rats (6 to 7-week-old) were fasted overnight, but allowed free access to water. Each group has 5 to 8 of these rats. The sample compound was dissolved or suspended in an aqueous solution of 0.3% sodium carboxymethylcellulose or 0.05% Tween 80 and then was orally administered (100 mg/10 ml/kg. To a control group, the vehicle was administered. 10 minutes later, the rats were placed in a stress cage and immersed to the level of xipfoid process in a water bath (21° C.) for 7 hours. At the end of the stress, the rats were sacrificed by inhalation of ether or carbon dioxide. Then, the stomach of each was removed, inflated by injecting 10 ml of 5% formalin neutral buffer solution, and immersed in 1% formalin neutral buffer solution for 30 minutes or more to be fixed. The stomach was incised along the greater curvature and then the length of each erosion in the glandular portion was determined under dissecting microscope. The sum of the length of erosions per stomach was defined as ulcer index (UI).
The effect obtained when 100 mg/kg of the sample compound had been administered was expressed as ulcer formation inhibitory rate (%) as follows:
ulcer formation inhibitory rate (%)=(1-(UI in sample group/UI in control group))×100

[1] = system: isolated gastric fundic gland; experiment: CAP: Acid Secretion Inhibition Test In Vitro ([14C]-aminopyrine uptake test); type: cell-based, male Japanese White rabbit; settings: Oryctolagus cuniculus; final concentration 10^-5 M, histamine 10^-5 M; read-out: acid secretion inhibitory rate (CAP)
Protocol: CAP: Acid Secretion Inhibition Test In Vitro
The acid secretion inhibitory activity in a cell level is studied. It can also be used for studying the mechanism of the effect.
ii-a) Preparation of isolated gastric fundus gland suspension
First, an isolated gastric fundic gland sample was prepared. Namely, a male Japanese White rabbit (2.5 to 3 kg) was anesthetized to death with Nembutal™ and then the abdomen was incised. Immediately thereafter, the stomach was removed and, after its pyloric and cardiac antrum were severed, incised along its greater curvature into two sheets. The gastric contents adhering to the mucosal surface was washed out with ice-cooled PBS (-) and then carefully washed therein. The gastric wall was spread on a cork board with its mucosal surface facing up and the feed and mucus thereon were completely removed with sterile gauze. The mucosa was separated therefrom by a spatula and then collected in ice-cooled PBS (-). After being washed twice with PBS (-), the mucosa was minced into 2-3 mm^3 pieces by scissors. These pieces were further washed twice with a nutrient solution. The nutrient solution comprises 132.4 mM of NaCl, 5.4 mM of KCl, 5 mM of Na2 HPO4.12H2 O, 1 mM of NaH2 PO4.2H2,
1.2 mM of MgSO4, 1 mM of CaCl2, 25 mM of HEPES, 2 mg/ml of glucose, and 1 mg/ml of BSA.
Into 70 ml of the nutrient solution containing 1 mg/ml of collagenase, minced mucosal pieces were dispersed and intensely stirred in a conical flask with a stirrer at 37° C. for 40 to 60 minutes. During this period, 100% O2 was sprayed on the nutrient solution surface and the pH was appropriately measured such that it was immediately adjusted to pH 7.4, when the value was therebelow, with a base. The nutrient solution was added to the reaction solution so as to attain the total amount of about 200 ml. After being filtered through a mesh, the suspension was divisionally introduced into 50 ml centrifuge tubes and left for 15 minutes such that gastric fundic gland was deposited. The supernatant was repeatedly removed by an aspirator, dispersed in the nutrient solution, and then left such that the gastric fundic gland was washed three times. At this time, without using a pipette, the suspension was alternately introduced into two centrifuge tubes so as to effect dispersion. The number of cells was counted under microscope and adjusted to 1.6×10^6 cells/ml.
ii-b) [^14 C]-aminopyrine uptake test.
Then, [^14 C]-aminopyrine uptake test was performed. After an Eppendorf tube was weighed, 10 μl (final concentration: 10^-5 M) of histamine dissolved in the above-mentioned nutrient solution, 10 μl (final concentration: 10^-5 M) of the test compound dissolved in DMSO, and 10 μl (final concentration: 0.05 μCi/ml) of [^14 C]-aminopyrine diluted with the nutrient solution were introduced therein and then 970 μl of the isolated gastric fundic gland suspension prepared above was added thereto. Subsequently, this mixture was shaken at 37° C. for 40 minutes at 125 cycles/minute. After being centrifuged for 30 seconds, 200 μl of its supernatant was collected into a mini-vial, while the rest was removed by an aspirator. The gland pellet was completely dried as the tube with its lid being opened was kept for one night in a drying oven at 80° C. and then the lid was closed and the weight was determined at room temperature. Then 100 μl of 1N KOH was added thereto and the tube with its lid being closed was treated at 60° C. for 1 to 2 hours so as to dissolve the pellet. Then, the contents thereof were transferred to a mini-vial. Into the mini-vial containing the supernatant or gland pellet, 4 ml of Atomlite™ was added and then the radioactivity was measured by a liquid scintillation counter. Here, after the radioactivity of the gland pellet was corrected by using a sample in which 20 mM of NaSCN was added so as to cancel the hydrogen ion concentration gradient, the integration ratio of aminopyrine specifically trapped by the gland pellet was calculated. […]

Slc:ICR mice = system: Slc:ICR mice; set-up: species or system male Slc:ICR mice; settings: mouse, in vivo
Protocol: AT: Single Dose Toxicity Pretest
Male Slc:ICR mice (5-week-old) were used. Each group has 3 to 5 mice and each mouse was fasted, but allowed free access to water, for 4 to 5 hours from 9 a.m. in the test day. Then, 2,000 mg/10 ml/kg of the sample compound dissolved or suspended in an aqueous solution of 0.5% sodium carboxymethyl cellulose was orally administered thereto. To a control, only the vehicle was administered. […] The body weight was measured before and after the fasting as well as at the same time everyday. The dead animals were immediately subjected to autopsy and their organs were observed by naked eyes. Also, the living animals were sacrificed with ether or carbon dioxide one week after the administration and then their organs were observed by naked eyes.
The toxicity at the single dose of 2,000 mg/kg of the sample compound was expressed as being classified into 5 levels.
5: Mortality rate is 0%; no toxicity is found at all both in behavior and organs.
4: Mortality rate is 0%; while no toxicity is found in organs, slight toxicity is observed in behavior or body weight increase.
3: While there is a dead animal (though not all the animals are dead), no toxicity is found in organs.
2: Regardless of whether there is a dead animal or not, toxicity is found in organs.
1: All the animals are dead.

[2] = MTT: Cell Damaging and Protecting Effect Test; type: cell-based, male Japanese White rabbit; settings: rabbit, gastric mucosa cells, final concentration 10^-4 M, smaller value is better, read-out: cell damaging rate (MTT)
Source text: MTT: Cell Damaging and Protecting Effect Test
It is confirmed that there is no toxicity in cell level. Those having a toxicity in cell level are inappropriate as an anti-ulcer drug.
A male Japanese White rabbit (2.5 to 3 kg) was anesthetized to death by Nembutal™ and, immediately thereafter, its stomach was removed. The greater curvature of the stomach was incised so as to remove the stomach contents therefrom. After the mucosal surface was washed with HBSS (Hanks' Balanced Salt Solution), the stomach in ice-cooled HBSS was transferred to a laboratory. Then, after the pyloric antrum was removed, the gastric corpus mucosa was separated by a spatula and then minced into 2 to 3 mm^3 pieces in BME (Basal Medium Eagle). Thereafer, these pieces were shaken at 120 to 130 cycles/minute for 15 minutes at 37° C. in BME 60 ml containing 280 U/ml of dispase and 30 to 50 U/ml of collagenase. Here, the concentration of collagenase was appropriately changed for each lot in view of the state of cells. The pieces were washed twice with EBSS (Earle's Balanced Salt Solution) containing 1 mM of EDTA and then shaken in MEM (Minimum Essential Medium) containing 1 mM of EDTA at 37° C. for 5 minutes. Subsequently, they were shaken in the dispase and collagenase having the same concentrations as those mentioned above for 15 minutes so as to remove the supernatant and then further shaken at 37° C. for 50 to 60 minutes at 120 to 130 cycles/minute. Then, after being washed twice with HBSS, Ham F12 containing 2% of Ultrocer G™ was used to attain the concentration of 1×10^6 cells/ml. Thus formed suspension was dispensed in each well of a 96-well plate by 200 μl. The plate was incubated in the atmosphere composed of 5% CO2 and 95% air at 37° C. for three days so as to attain a confluent state and then subjected to MTT assay.
The sample compound was dissolved in DMSO so as to attain a concentration of 10^-2 M and then diluted with HBSS containing 2% of Ultrocer G™ so as to attain a final concentration of 10^-4 M. To each group, which 8 wells were used for, 10 μl of MTT reagent was added immediately after 100 μl of the medium in each well was exchanged for same volume of the resulting solution of the sample compound. After being incubated in an atmosphere composed of 5% CO2 and 95% air at 37° C. for 4 hours, thus formed solution was centrifuged and then its supernatant was discarded. Subsequently, 100 μl of 100% ethanol was added to the residue so as to dissolve MTT formazan. Then, the absorbance (OD: 570 to 630) was measured by a microplate reader. This method utilizes a phenomenon in which MTT is changed to MTT formazan only by mitochondria of living cells so as to change color.
The cell damaging or cell protecting effect of the sample compound at the final concentration of 10^-4 M was expressed as cell damaging rate (%) as follows:
cell damaging rate (%)=(1-(absorbance in sample group/absorbance in control group))×100
Accordingly, the smaller value is better in the cell damaging rate.

CCN1CCCC1CNC(=O)c1cc(OCC=C(C)C)cc(OCC=C(C)C)c1 (stereo not shown) [Example 8, 1-ethyl-2-(3,5-diprenyloxybenzoylaminomethyl)pyrrolidine]
inhibition in vivo at 100 mg/kg (stress ulcer): 81%
inhibition at 10 µM [1]: 100%
toxicity at single dose (AT), 5 levels (Slc:ICR mice): 5

CCN1CCCC1CNC(=O)c1ccc(OC/C=C(\C)CCC=C(C)C)c(OC)c1 (stereo not shown) [Example 16, 1-ethyl-2-(4-geranyloxy-3-methoxybenzoylaminomethyl)pyrrolidine]
inhibition in vivo at 100 mg/kg (stress ulcer): 72%
inhibition at 10 µM [1]: 99.8%
toxicity at single dose (AT), 5 levels (Slc:ICR mice): 4

CCN1CCCC1CNC(=O)c1ccc(OCC=C(C)C)cc1 (stereo not shown) [Example 3, 1-ethyl-2-(4-prenyloxybenzoylaminomethyl)pyrrolidine]
inhibition in vivo at 100 mg/kg (stress ulcer): 86%
inhibition at 10 µM [1]: 61%
cytotoxicity at 4 h, 100 µM [2]: -14%

CCN1CCCC1CNC(=O)c1ccccc1SC/C=C(\C)CCC=C(C)C (stereo not shown) [Example 14, 1-ethyl-2-(2-geranylthiobenzoylaminomethyl)pyrrolidine]
inhibition in vivo at 100 mg/kg (stress ulcer): 81%
anti-ulcer effect (in words) (stress ulcer; in vivo): the effect has been maintained
inhibition at 10 µM [1]: 98.1%
cytotoxicity at 4 h, 100 µM [2]: 27%

CCN1CCCC1CNC(=O)c1cc(OC)c(OC)c(OCC=C(C)C)c1 (stereo not shown) [Example 23, 1-ethyl-2-(3,4-dimethoxy-5-prenyloxybenzoylaminomethyl)pyrrolidine]
inhibition in vivo at 100 mg/kg (stress ulcer): 79%
inhibition at 10 µM [1]: 73.1%
cytotoxicity at 4 h, 100 µM [2]: -3%

CCN1CCCC1CNC(=O)c1ccc(OC/C=C(/C)CCC=C(C)C)cc1 (stereo not shown) [Example 4, 1-ethyl-2-(4-neryloxybenzoylaminomethyl)pyrrolidine]
inhibition in vivo at 100 mg/kg (stress ulcer): 68%
inhibition at 10 µM [1]: 100%
toxicity at single dose (AT), 5 levels (Slc:ICR mice): 5
